One data set concerns AMPKα. Put plainly: Measurement of AMPK activation effect (AMPKα Thr172 phosphorylation immunoassay) in MCF7 cells. Particulars: 24 hours; for AMPK activation effect at 10 μM (%) / AMPK activation effect at 50 μM (%): relative to untreated cells; for AMPK activation effect AC150: concentration at which AMPK activation reached 150%. It is filed as cell-based, human. The method in brief:
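MCF7 cells in DMEM/10% FBS were treated 24 h with derivatives at 5, 10 and 50 μM (metformin hydrochloride control, 0.05–10 mM). AMPKα Thr172 phosphorylation was measured by immunoassay on 20 μg lysate. AC150 (concentration giving 150% activation) came from concentration–response curves, with activation also reported at fixed concentrations.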

The subject of another data set is HCT116 cells. Put plainly: Measurement of effect of inhibiting cancer cell proliferation (MTT). Particulars: Homo sapiens; for inhibition at 100 µM: HCT-116, 100 μM, 48 hours, read-out: Cell Growth Inhibition (%) at 100 μM; for GI50: HCT-116, 48 h. It is filed as cell-based, human. Summed up: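 HCT116 cells (~5,000/well, DMEM with 10% FBS) treated 48 h with compound at 0.39–100 μM, metformin hydrochloride control at 0.1–25 mM. Viability by MTT (3 h, formazan in DMSO, A560) relative to untreated wells; GIC50 from the viability curve, also viability at 100 μM.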

Turning to `Cl.N=C(NC(=N)N1CCC1)Nc1ccc(OC(F)(F)F)c(Cl)c1` [Example 55, N1-azetidine-N5-(3-chloro-4-trifluoromethoxy)phenyl biguanide hydrochloride], the melting point (commonly the temperature, or range, at which the solid turns liquid) fell in the range of 254 to 255 °C. In the data set with AMPKα, the “AMPK activation effect at 10 μM (%)” value came out at 342% and the “AMPK activation effect AC150” value is 2.6 µM. In the data set with HCT116 cells, the inhibition (as a rule, the relative decrease from the control value, in per cent) at 100 µM came out at 101% and the GI50 – broadly, the concentration giving 50% growth inhibition – came out at 7.3 µM.

The compound `Cl.N=C(NC(=N)N1CCCCC1)Nc1ccc(OC(F)(F)F)c(Cl)c1` [Example 57, N1-piperidine-N5-(3-chloro-4-trifluoromethoxy)phenyl biguanide hydrochloride] showed a melting point of 261 to 262 °C. Besides, in the data set on AMPKα, the “AMPK activation effect at 10 μM (%)” value came to 345% and the “AMPK activation effect AC150” value is 3.2 µM. In the data set with HCT116 cells, the inhibition at 100 µM was determined as 96.3% and halving of growth (GI50) required 2.6 µM.

In turn, `Cl.N=C(NC(=N)N1CCCCC1)Nc1ccc(F)cc1F` [Example 58, N1-piperidine-N5-(2,4-difluoro)phenyl biguanide hydrochloride] registered a melting point of 256 to 257 °C. In the data set on AMPKα, the “AMPK activation effect at 10 μM (%)” value turned out to be 131%, the “AMPK activation effect at 50 μM (%)” value is recorded as 265% and the “AMPK activation effect AC150” value worked out at 16.5 µM. For the same compound, in the data set on HCT116 cells, the inhibition at 100 µM was 37.4% and the GI50 was greater than 100 µM.

Turning to `Cl.N=C(NC(=N)N1CCCCC1)Nc1ccc(F)c(F)c1` [Example 59, N1-piperidine-N5-(3,4-difluoro)phenyl biguanide hydrochloride], the melting point is 257 to 258 °C. Moreover, in the data set on AMPKα, the “AMPK activation effect at 10 μM (%)” value turned out to be 269%, the “AMPK activation effect at 50 μM (%)” value turned out to be 1036% and the “AMPK activation effect AC150” value came out at 3.6 µM. In addition, in the data set with HCT116 cells, the inhibition at 100 µM came out at 97.8% and growth was halved (GI50) at 28.1 µM.

For the compound `Cl.N=C(NC(=N)N1CCCCC1)Nc1cc(F)cc(F)c1` [Example 60, N1-piperidine-N5-(3,5-difluoro)phenyl biguanide hydrochloride], the melting point was in the range of 243 to 244 °C. Also, in the data set on AMPKα, the “AMPK activation effect at 10 μM (%)” value is 144%, the “AMPK activation effect at 50 μM (%)” value worked out at 576% and the “AMPK activation effect AC150” value was 8.2 µM. In the data set with HCT116 cells, the inhibition at 100 µM turned out to be 97.6% and the 50% growth inhibitory concentration (GI50) worked out at 48.2 µM.

In turn, `Cl.N=C(NC(=N)N1CCCCC1)Nc1cc(Cl)cc(Cl)c1` [Example 61, N1-piperidine-N5-(3,5-dichloro)phenyl biguanide hydrochloride] gave a melting point of 230 to 231 °C. Moreover, in the data set on AMPKα, the “AMPK activation effect at 10 μM (%)” value came to 239% and the “AMPK activation effect AC150” value came to 3.3 µM. Also, in the data set with HCT116 cells, the inhibition at 100 µM came to 97.7% and the 50% growth inhibitory concentration (GI50) was 7.1 µM.

The compound `Cl.N=C(NC(=N)N1CCCCC1)Nc1ccc(Cl)cc1Cl` [Example 62, N1-piperidine-N5-(2,4-dichloro)phenyl biguanide hydrochloride] returned a melting point of 262 to 263 °C. Moreover, in the data set with AMPKα, the “AMPK activation effect at 10 μM (%)” value was 208% and the “AMPK activation effect AC150” value stood at 5.6 µM. In the data set on HCT116 cells, the inhibition at 100 µM amounted to 97.2% and the 50% growth inhibitory concentration (GI50) was found to be 11.6 µM.

Compound `Cl.N=C(NC(=N)N1CCCC1)Nc1ccc(Cl)c(Cl)c1` [Example 63, N1-pyrrolidine-N5-(3,4-dichloro)phenyl biguanide hydrochloride] returned a melting point of 282 to 283 °C. For the same compound, in the data set with AMPKα, the “AMPK activation effect at 10 μM (%)” value was 261% and the “AMPK activation effect AC150” value was determined as 6.2 µM. Also, in the data set on HCT116 cells, the inhibition at 100 µM was determined as 97.6% and halving of growth (GI50) required 8.7 µM.

In turn, `Cl.N=C(NC(=N)N1CCCCC1)Nc1ccc(Cl)c(Cl)c1` [Example 64, N1-piperidine-N5-(3,4-dichloro)phenyl biguanide hydrochloride] had a melting point of 267 to 269 °C. For the same compound, in the data set on AMPKα, the “AMPK activation effect at 10 μM (%)” value was determined as 442% and the “AMPK activation effect AC150” value turned out to be 0.7 µM. For the same compound, in the data set on HCT116 cells, the inhibition at 100 µM worked out at 101% and the 50% growth inhibitory concentration (GI50) came out at 6.4 µM.

Source of the values: US9540325B2, “N1-cyclic amine-N5-substituted phenyl biguanide derivatives, methods of preparing the same and pharmaceutical composition comprising the same” (Immunomet Therapeutics, Inc., priority 2011, dated 2017).
